Test results published in patent publication EP0570714B1, “Use of aminoalcohol-N-acylderivatives for the manufacture of a medicament for the treatment of neurogenic endoneural oedema of the peripheral nerve” (LIFEGROUP S.p.A., priority 1992, dated 1993).
Values joined by “and” are separate entries in the source; they are usually repeats but may differ in a detail not shown here. Equal values may be shown once.

Experiments:
mast cells = test: Mast cell degranulation after crushing of the sciatic nerve (in vivo, histological count); parameters: species or system Male Spraugue Dawley Rats; settings: 20 mg/kg intraperitoneally for 15 days, on soy lecithin liposomes, sciatic nerve compression at 16th day, sacrifice three hours after, control average 61.4
Method: In order to verify the pharmacological activity of N-acyl derivatives of aminoalcohols, and in particular of N-PEA, under conditions of traumatic noxa due to crushing of the sciatic nerve, and therefore able to induce mast cells degranulation, the following "in vivo" biologic test was carried out.
Male Spraugue Dawley Rats weighing about 200 -250 g were divided into two groups and subjected for 15 days to two different treatments: the first group, being the control group, was intraperitoneally treated with a solution of liposomes of soy lecithin, whereas the second group was intraperitoneally treated with 20 mg/kg N-PEA vehiculated on soy lecithin liposomes.
At the 16th day the animals were subjected to a bland general anesthesia with ethyl ether, thereby proceeding to the operation of the nerve lesion as hereinbelow described. The left sciatic nerve was exposed just in the spot of its entrance to the haunch, by operating a dissection of the muscular bands. The thus exposed sciatic nerve was then repeatedly compressed as closest as possible to its origin, by using a crushing forceps. The wound was temporarily sewn up and the animals were left to recover.
Three hours after the sciatic nerve compression lesion the animals were sacrificed in order to take the sciatic nerve samples and to fix it for the histological analysis with a mixture of acetic acid and formalin. […]

[1] = Physical chemical characteristics: solubility; type: physicochemical
Excerpt: The physical chemical characteristics of the N-PEA product synthesized according to the present example were the following : […]

- solubility in water [1]: insoluble
- solubility in organic solvent ([1]; solvents in which soluble): Hot MetOH, CHCl3, DMSO
- solubility in aqueous vehicles ([1]; stated as the reason for choosing the liposome vehicle): poor solubility
SMILES: CCCCCCCCCCCCCCCC(=O)NCCO [N-PEA, N-(2-hydroxyethyl)hexadecanamide]
- Number of degranulated cells on a total of 100 examined cells, average (mast cells; average of 5 rats): 36.6
- Number of degranulated cells on a total of 100 examined cells (mast cells; individual rats, 20 mg/kg): 35 and 44 and 37 and 25 and 42
